1 molecule from article PMC4824473, “Dose-Response Analysis of Chemotactic Signaling Response in Salmonella typhimurium LT2 upon Exposure to Cysteine / Cystine Redox Pair” (PLoS ONE, 2016) can be followed below.

The target of the test is T1, Tar (Salmonella enterica, UniProt P02941).
T1 construct: native chromosomal full-length receptor, homodimer in mixed receptor arrays; strain TSS868 (LT2 delta-tsr delta-cheY delta-cheZ) with CheZ-CFP/CheY-YFP plasmid pVS88; other native receptors present
Description: in vivo CheZ-CFP/CheY-YFP FRET of receptor-kinase activity, Hill fit. Type of test: cell-based. The conditions noted are these: live delta-tsr cells, motility buffer pH 7.0, room temperature; attractant; Hill coefficient 1.5; other receptors present; about 1% of Cys possibly oxidized to cystine; read-out: half maximum.

T1 sequence (P02941 whole entry): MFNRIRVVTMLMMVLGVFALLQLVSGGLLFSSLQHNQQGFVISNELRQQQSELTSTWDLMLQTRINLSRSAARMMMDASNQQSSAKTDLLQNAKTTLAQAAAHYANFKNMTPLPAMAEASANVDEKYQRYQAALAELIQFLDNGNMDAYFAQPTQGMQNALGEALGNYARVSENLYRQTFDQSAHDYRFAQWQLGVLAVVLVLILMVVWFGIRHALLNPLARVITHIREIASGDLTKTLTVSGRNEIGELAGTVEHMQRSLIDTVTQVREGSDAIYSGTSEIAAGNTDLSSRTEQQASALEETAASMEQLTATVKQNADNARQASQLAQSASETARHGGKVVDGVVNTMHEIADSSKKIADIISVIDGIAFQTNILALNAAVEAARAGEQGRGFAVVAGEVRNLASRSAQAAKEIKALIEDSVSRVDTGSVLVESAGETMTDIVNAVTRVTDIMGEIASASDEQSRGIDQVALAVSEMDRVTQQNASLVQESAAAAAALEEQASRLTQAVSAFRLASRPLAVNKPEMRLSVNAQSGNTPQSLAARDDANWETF

On to `N[C@@H](CS)C(=O)O` [Cys], for which the EC50 came to 128 µM.
